{"source": "patent US10899790B2", "about": "“Method for modifying T cell population” (OSAKA UNIVERSITY, priority 2016, dated 2021)", "key": {"[1]": {"target": "T1, Retinol Dehydrogenase 10 (RDH10) (Homo sapiens, UniProt Q8IZV5)", "T1 construct": "expressed in transfected cells; host or cells: 293T (microsomal fraction)", "T1 sequence (Q8IZV5 1-341)": "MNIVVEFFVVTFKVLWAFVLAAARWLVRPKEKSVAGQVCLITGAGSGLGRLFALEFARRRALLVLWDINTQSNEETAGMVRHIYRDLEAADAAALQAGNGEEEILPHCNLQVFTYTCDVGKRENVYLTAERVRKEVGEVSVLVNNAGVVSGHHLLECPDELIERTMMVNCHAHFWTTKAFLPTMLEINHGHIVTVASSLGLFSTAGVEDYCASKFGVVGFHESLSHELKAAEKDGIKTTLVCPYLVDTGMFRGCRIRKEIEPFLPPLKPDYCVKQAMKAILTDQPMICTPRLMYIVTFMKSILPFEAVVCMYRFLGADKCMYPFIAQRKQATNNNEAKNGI", "test": "Inhibition of RDH10 enzyme activity (microsomal fraction of RDH10-expressed 293T, all-trans retinol to all-trans retinal, HPLC)", "format": "biochemical", "conditions": "final concentration of 20 μM; relative to DMSO control (FIG. 1)", "experimental": "All-trans retinol, BSA, and NAD (nicotinamide adenine dinucleotide) as a coenzyme were added to a buffer for reaction (90 mM potassium phosphate buffer, pH7.4, 40 mM KCl) so as to have final concentrations of 10 μM, 10 μM, and 1 mM respectively. This mixture was taken in siliconized tubes by 200 μl for each, the microsomal fractions separated from 293T and RDH10-expressed 293T were added to separate tubes by 10 μl for each, and the mixtures were allowed to react at 37° C. for 15 minutes. After 200 μl of methanol was added to the reaction mixtures to stop the reaction, retinoid was extracted using hexane and concentrated. The concentrated retinoid was dissolved in 150 μl of acetonitrile, separated by HPLC, and subjected to the detection of ultraviolet light absorption at a wavelength of 350 nm, whereby the substrate (all-trans retinol) and the product (all-trans retinal) were detected. In addition, standard samples (all-trans retinol and all-trans retinal) were separated by HPLC and the retention times of the respective standard samples were determined in advance. The solvent for HPLC was acetonitrile: 50 mM ammonium acetate=75:25. As the separation column, Syhergi 4 μm Hydro-RP 80A (manufactured by Phenomenex) was used. In addition, the flow rate was 2.0 ml/min. The RDH10 enzyme activity was calculated by reading the amount of product per fixed time from the chart of HPLC.\nAll-trans retinol, BSA, and NAD (nicotinamide adenine dinucleotide) as a coenzyme were added to a buffer for reaction (90 mM potassium phosphate buffer, pH7.4, 40 mM KCl) so as to have final concentrations of 10 μM, 10 μM, and 1 mM respectively. This mixture was taken in siliconized tubes by 200 μl for each, the microsomal fraction separated from RDH10-expressed 293T was added to separate tubes by 10 μl for each. The RDH10 inhibitor dissolved in DMSO was added to each tube so as to have a final concentration of 20 μM, and the same amount of DMSO was added to the control tube. The mixture was allowed to react at 37° C. for 15 to 30 minutes, 200 μl of methanol was added to the reaction mixtures, and then retinoid was extracted using hexane and concentrated. The concentrated retinoid was dissolved in 150 μl of acetonitrile, separated by HPLC, and subjected to the detection of ultraviolet light absorption at a wavelength of 350 nm, whereby the substrate (all-trans retinol) and the product (all-trans retinal) were detected. In addition, standard samples (all-trans retinol and all-trans retinal) were separated by HPLC and the retention times of the respective standard samples were determined in advance. The solvent for HPLC was acetonitrile: 50 mM ammonium acetate=75:25. As the separation column, Syhergi 4 μm Hydro-RP 80A (manufactured by Phenomenex) was used. The flow rate was 2.0 ml/min.\nThe enzyme activity was determined by the waveform area of the product (all-trans retinal) with respective to the waveform area of the non-reacted substrate (all-trans retinol), and the relative value with respect to the enzyme activity in the control is illustrated in FIG. 1. The error bars indicate SD (standard deviation)."}, "[2]": {"tested_on": "mouse cancer cell line EG7 expressing OVA", "test": "Effect in vivo: EG7 tumor-bearing B6 mice with transferred OT-1 cells", "set-up": "species or system C57BL/6J mouse", "description": "A mouse cancer cell line EG7 (2×10^6) expressing OVA (chicken ovalbumin) was subcutaneously injected into C57BL/6J mouse (B6 mouse) to form a tumor. Five days later, the mouse in which a tumor was formed was irradiated with radiation at 3 Gy, then T cell-receptive OTCD8^+T cells (OT-1 cells) specific for OVA antigen were isolated from CD45.1 positive OT-I transgenic mouse, and this was transferred into the mouse by 2×10^5 through the tail vein. A total of 3 times every other day from the next day, RDH10 inhibitors (Compound No. 1 (RDHI-012) and Compound No. 2 (RDHI-013)) were administered to the mouse at 100 μg/mouse for each through the tail vein. The RDH10 inhibitors were administered to the mouse by being previously stocked in DMSO at 100 μg/50 μl and adjusted to have a total volume of 200 μl by the addition of 150 μl of PBS.\nIn the experiment, tumor volumes were measured over time. The frequency of OT-1 cells (OVA specific CD8^+T cells) in peripheral blood on the 20th day was measured. Furthermore, the expression intensity of cell surface antigen molecules (CD62L, CD127), which were markers of memory T cells, was analyzed.\nThe time course in the mean value of tumor volume after tumor transplantation is illustrated in FIG. 4. The error bars indicate the standard error. The tumor volume was determined by major axis×minor axis×height/2.\nOn the 20th day after the tumor transplantation, the frequency of transferred OT-I cells contained in peripheral blood was analyzed by flow cytometry. OT-I cells were CD45.1 positive and thus were clearly distinguishable from the host B6 mouse (CD45.2 positive)-derived T cells. The representative results are illustrated in FIG. 5.\nThe expression intensities of CD62L and CD127 in OT-I cells illustrated in FIG. 5 were analyzed by flow cytometry. The mean value and standard error of each expression intensity are illustrated in FIG. 6."}}, "note": "“Also recorded” adds a separate entry of the source.", "data": [{"smiles": "COC(=O)[C@@]1(C)CC[C@]2(C)CC[C@]3(C)C(=CC(=O)[C@@H]4[C@@]5(C)CCC(N)C(C)(C)[C@@H]5CC[C@]43C)[C@@H]2C1", "note": "(stereo partly drawn) [Compound No. 2, (2S,4aS,6aS,6bR,8aR,12aS,12bR,14bR)-methyl 10-amino-2,4a,6a,6b,9,9,12a-heptamethyl-13-oxo-1,2,3,4,4a,5,6,6a,6b,7,8,8a,9,10,11,12,12a,12b,13,14b-icosahydropicene-2-carboxylate]", "values": [{"measurement": "RDH10 enzyme activity inhibitory action", "setting": "[1]", "result": "relatively potent; also recorded: potent RDH10 enzyme activity inhibitory action"}, {"measurement": "frequency of CD45.1+OT-1 cells (OVA specific CD8+ cells) in peripheral blood", "setting": "[2]; 100 μg/mouse tail vein, 20th day after tumor transplantation (FIG. 5)", "result": "amplify CD45.1^+OT-1 cells"}, {"measurement": "expression of CD62L and CD127 in CD45.1+OT-1 cells", "setting": "[2]; 100 μg/mouse tail vein, 20th day, flow cytometry (FIG. 6)", "result": "accelerate the expression of CD62L and CD127"}, {"measurement": "proliferation of tumor in vivo", "setting": "[2]; 100 μg/mouse through the tail vein, 3 times every other day", "result": "suppress the proliferation of tumor in vivo"}, {"measurement": "tumor volume", "setting": "[2]; 100 μg/mouse through the tail vein, 3 times every other day, 21st day after transplantation (FIG. 4)", "result": "decreased to one several tenths to one several hundredths"}]}]}
